Results on three compounds are retold here after ChEMBL document CHEMBL1145478, “Neisseria gonorrhoeae isolates with reduced susceptibility to cefixime and ceftriaxone: association with genetic polymorphisms in penA, mtrR, porB1b, and ponA” (2007).

Holding throughout (assay type): functional
Assay [1] deals with Neisseria gonorrhoeae. As to the kind of experiment: Antimicrobial activity against Neisseria gonorrhoeae 67 isolate.
Assay [2] concerns Neisseria gonorrhoeae. In words: Antimicrobial activity against Neisseria gonorrhoeae 65 isolate.
The subject of assay [3] is Neisseria gonorrhoeae. In words: Antimicrobial activity against Neisseria gonorrhoeae 64 isolate.
The test system of assay [4] is Neisseria gonorrhoeae. In words: Antimicrobial activity against Neisseria gonorrhoeae 30 isolate.
The test system of assay [5] is Neisseria gonorrhoeae. In words: Antimicrobial activity against Neisseria gonorrhoeae 196 isolate.
Assay [6] deals with Neisseria gonorrhoeae. In words: Antimicrobial activity against Neisseria gonorrhoeae 273 isolate.
Assay [7] has as its system Neisseria gonorrhoeae. In words: Antimicrobial activity against Neisseria gonorrhoeae 253 isolate.
Assay [8] concerns Neisseria gonorrhoeae. In words: Antimicrobial activity against Neisseria gonorrhoeae 201 isolate.
Assay [9] has as its system Neisseria gonorrhoeae. In words: Antimicrobial activity against Neisseria gonorrhoeae 188 isolate.
Assay [10] relates to Neisseria gonorrhoeae. As to the kind of experiment: Antimicrobial activity against Neisseria gonorrhoeae 158 isolate.
Assay [11] deals with Neisseria gonorrhoeae. In words: Antimicrobial activity against Neisseria gonorrhoeae 119 isolate.
In assay [12] the test system is Neisseria gonorrhoeae. As to the kind of experiment: Antimicrobial activity against Neisseria gonorrhoeae 59 isolate.
Assay [13] has as its system Neisseria gonorrhoeae. In words: Antimicrobial activity against Neisseria gonorrhoeae 35 isolate.
Assay [14] relates to Neisseria gonorrhoeae. In words: Antimicrobial activity against Neisseria gonorrhoeae 82 isolate.
Assay [15] concerns Neisseria gonorrhoeae. In words: Antimicrobial activity against Neisseria gonorrhoeae 90 isolate.
The subject of assay [16] is Neisseria gonorrhoeae. In words: Antimicrobial activity against Neisseria gonorrhoeae 91 isolate.
For assay [17], the system named is Neisseria gonorrhoeae. As to the kind of experiment: Antimicrobial activity against Neisseria gonorrhoeae 128 isolate.

≈ marks a conversion by molar mass, not a printed value. Bounds are passed on as bounds.

Consider `C=CC1=C(C(=O)O)N2C(=O)[C@@H](NC(=O)/C(=N\OCC(=O)O)c3csc(N)n3)[C@H]2SC1` [CEFIXIME], for which the minimum inhibitory concentration (MIC) with Neisseria gonorrhoeae [1] stood at 0.25 µg/mL (≈ 0.551 µM); in the assay with Neisseria gonorrhoeae [2], 0.25 µg/mL (≈ 0.551 µM); against Neisseria gonorrhoeae [3], 0.25 µg/mL (≈ 0.551 µM); against Neisseria gonorrhoeae [4] it was 0.25 µg/mL (≈ 0.551 µM); against Neisseria gonorrhoeae [5], 0.094 µg/mL (≈ 0.207 µM); in the assay on Neisseria gonorrhoeae [6], 0.064 µg/mL (≈ 0.141 µM). The MIC is 0.064 µg/mL (≈ 0.141 µM) in the assay on Neisseria gonorrhoeae [7]; 0.064 µg/mL (≈ 0.141 µM) against Neisseria gonorrhoeae [8]; 0.064 µg/mL (≈ 0.141 µM) against Neisseria gonorrhoeae [9]; 0.047 µg/mL (≈ 0.104 µM) in the assay with Neisseria gonorrhoeae [10]; less than 0.016 µg/mL with Neisseria gonorrhoeae [11]; 0.25 µg/mL (≈ 0.551 µM) with Neisseria gonorrhoeae [12]. In addition, the MIC with Neisseria gonorrhoeae [13] is 0.38 µg/mL (≈ 0.838 µM); with Neisseria gonorrhoeae [14], 0.38 µg/mL (≈ 0.838 µM); in the assay with Neisseria gonorrhoeae [15] it was 0.38 µg/mL (≈ 0.838 µM); in the assay on Neisseria gonorrhoeae [16], 0.38 µg/mL (≈ 0.838 µM); in the assay on Neisseria gonorrhoeae [17] it was less than 0.016 µg/mL.

As for `CO/N=C(\C(=O)N[C@@H]1C(=O)N2C(C(=O)O)=C(CSc3nc(=O)c(O)nn3C)CS[C@H]12)c1csc(N)n1` [CEFTRIAXONE], the MIC with Neisseria gonorrhoeae [1], in the assay with Neisseria gonorrhoeae [2], in the assay on Neisseria gonorrhoeae [3], in the assay on Neisseria gonorrhoeae [4], with Neisseria gonorrhoeae [5] and in the assay on Neisseria gonorrhoeae [6] was 0.094 µg/mL (≈ 0.169 µM) in each case. The MIC against Neisseria gonorrhoeae [7] was 0.064 µg/mL (≈ 0.115 µM); against Neisseria gonorrhoeae [8], 0.064 µg/mL (≈ 0.115 µM); with Neisseria gonorrhoeae [9], 0.064 µg/mL (≈ 0.115 µM); against Neisseria gonorrhoeae [10], 0.094 µg/mL (≈ 0.169 µM); in the assay with Neisseria gonorrhoeae [11], less than 0.002 µg/mL; against Neisseria gonorrhoeae [12] it was 0.094 µg/mL (≈ 0.169 µM). Besides, the MIC is 0.094 µg/mL (≈ 0.169 µM) in the assay on Neisseria gonorrhoeae [13]; 0.125 µg/mL (≈ 0.225 µM) with Neisseria gonorrhoeae [14]; 0.125 µg/mL (≈ 0.225 µM) against Neisseria gonorrhoeae [15]; 0.125 µg/mL (≈ 0.225 µM) in the assay with Neisseria gonorrhoeae [16]; less than 0.002 µg/mL against Neisseria gonorrhoeae [17].

In the case of `CC1(C)S[C@@H]2[C@H](NC(=O)Cc3ccccc3)C(=O)N2[C@H]1C(=O)O` [PENICILLIN G], the MIC against Neisseria gonorrhoeae [1] was found to be 2 µg/mL (≈ 5.98 µM); against Neisseria gonorrhoeae [2] it was 1.5 µg/mL (≈ 4.49 µM); against Neisseria gonorrhoeae [3], 2 µg/mL (≈ 5.98 µM); in the assay with Neisseria gonorrhoeae [4] it was 3 µg/mL (≈ 8.97 µM); with Neisseria gonorrhoeae [5] it was 1 µg/mL (≈ 2.99 µM); against Neisseria gonorrhoeae [6] it was 1.5 µg/mL (≈ 4.49 µM). The MIC with Neisseria gonorrhoeae [7] turned out to be 1.5 µg/mL (≈ 4.49 µM); in the assay on Neisseria gonorrhoeae [8], 1 µg/mL (≈ 2.99 µM); against Neisseria gonorrhoeae [9], 1 µg/mL (≈ 2.99 µM); in the assay with Neisseria gonorrhoeae [10], 1.5 µg/mL (≈ 4.49 µM); in the assay with Neisseria gonorrhoeae [11], 0.012 µg/mL (≈ 0.0359 µM); in the assay on Neisseria gonorrhoeae [12], 6 µg/mL (≈ 17.9 µM). Also, the MIC was found to be 2 µg/mL (≈ 5.98 µM) against Neisseria gonorrhoeae [13]; 6 µg/mL (≈ 17.9 µM) with Neisseria gonorrhoeae [14]; 6 µg/mL (≈ 17.9 µM) against Neisseria gonorrhoeae [15]; 6 µg/mL (≈ 17.9 µM) in the assay with Neisseria gonorrhoeae [16]; 0.008 µg/mL (≈ 0.0239 µM) with Neisseria gonorrhoeae [17].

As a reminder, the MIC is the lowest concentration that inhibits growth of the organism. A higher MIC goes with weaker potency.
